Assay: solubility of rod like amorphous particles compared to Form I
Details: qualitative statement, no method or figures given

Q: For `CC(C)CN(C[C@@H](OP(=O)(O)O)[C@H](Cc1ccccc1)NC(=O)O[C@H]1CCOC1)S(=O)(=O)c1ccc(N)cc1` [rod like amorphous particles, calcium (2R, 3S)-1-(4-amino-N-isobutyl-phenylsulfonamido)-4-phenyl-3-(((S)-tetrahydrofuran-3-yloxy)carbonylamino)butan-2-yl phosphate], which solubility is on record?
A: Its solubility is “enhanced solubility compared to Form I”.
